ChEMBL document CHEMBL2424611, “Identification of potent, selective, CNS-targeted inverse agonists of the ghrelin receptor” (Bioorg Med Chem Lett, 2013)

Tests used:
[1] = biological target: T1, Growth hormone secretagogue receptor type 1 (Homo sapiens, UniProt Q92847); assay: Displacement of [125I]-ghrelin from human GHS-R1a expressed in tetracycline inducible HEK293 cells after 8 hrs by liquid scintillation counting; type: cell-based; details: for pKi: hek293
[2] = biological target: T2, Muscarinic acetylcholine receptor M2 (Homo sapiens, UniProt P08172); assay: Displacement of N-methyl [3H]-scopolamine from recombinant human muscarinic acetylcholine receptor M2 expressed in CHO cells after 2 hrs by liquid scintillation counting; type: cell-based; details: for pKi: cho
T2 sequence (P08172 whole entry): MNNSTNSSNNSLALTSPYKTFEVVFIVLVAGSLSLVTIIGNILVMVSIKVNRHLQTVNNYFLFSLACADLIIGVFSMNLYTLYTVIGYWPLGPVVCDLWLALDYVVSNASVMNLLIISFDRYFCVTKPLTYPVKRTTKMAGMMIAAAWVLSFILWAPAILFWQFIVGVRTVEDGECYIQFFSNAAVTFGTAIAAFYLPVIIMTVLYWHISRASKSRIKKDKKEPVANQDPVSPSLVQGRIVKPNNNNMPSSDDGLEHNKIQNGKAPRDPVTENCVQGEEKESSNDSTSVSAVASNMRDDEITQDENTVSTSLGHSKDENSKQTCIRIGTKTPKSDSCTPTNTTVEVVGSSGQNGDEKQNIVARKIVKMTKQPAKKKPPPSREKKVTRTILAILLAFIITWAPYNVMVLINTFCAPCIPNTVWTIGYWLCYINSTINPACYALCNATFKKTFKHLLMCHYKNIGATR

[3] = biological target: T1, Growth hormone secretagogue receptor type 1; assay: Inverse agonist activity at human GHS-R1a expressed in tetracycline inducible HEK293 cells incubated for 24 hrs prior to europium-labeled GTP addition measured after 90 mins by DELFIA assay; type: cell-based; set-up: Activity: concentration or dose not given beside the values
Rattus norvegicus = assay: Ex vivo receptor occupancy of GHS-R1a in Sprague-Dawley rat hypothalamus at 10 mg/kg, po measured at 1 hr by liquid scintillation counting in presence of [His [125I]]-Ghrelin; type: functional
human MDR1 (P-gp) = assay: Efflux ratio of permeability in MDCK cells expressing human MDR-1 gene; type: ADME, cell-based, Canis lupus familiaris; details: dog
[4] = Apparent intrinsic clearance in human liver microsomes; type: ADME, Microsome; details: read-out: CLH(app)
[5] = biological target: T2, Muscarinic acetylcholine receptor M2; assay: Binding affinity to muscarinic acetylcholine receptor M2 (unknown origin)

T1 sequence (Q92847 whole entry): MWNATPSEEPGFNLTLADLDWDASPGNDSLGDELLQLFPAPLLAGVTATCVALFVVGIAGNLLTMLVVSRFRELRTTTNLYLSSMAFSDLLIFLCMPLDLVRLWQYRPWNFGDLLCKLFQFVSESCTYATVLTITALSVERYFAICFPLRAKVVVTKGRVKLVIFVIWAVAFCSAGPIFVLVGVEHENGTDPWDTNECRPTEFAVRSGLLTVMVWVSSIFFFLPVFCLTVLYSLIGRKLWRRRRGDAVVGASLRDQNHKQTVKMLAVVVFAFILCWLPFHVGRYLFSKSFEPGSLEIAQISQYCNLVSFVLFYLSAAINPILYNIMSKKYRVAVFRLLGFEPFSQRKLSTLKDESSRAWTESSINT

SMILES	Ki [2]	Ki [1]	Activity [3]	pKb [3]	Occ (Rattus norvegicus)	other results
COc1ccc(CC(=O)N2CCC3(CC2)CN([C@H]2CCc4cc(-c5nccs5)ccc42)C3)nc1	1550 nM	1380 nM	–	–	–	–
CCc1cnc(-c2ccc3c(c2)CC[C@H]3N2CC3(CCN(C(=O)Cc4ccc(OC)cn4)CC3)C2)nc1	–	–	29%	7.37	64%	pKi [2]: < 4.17
COc1ccc(CC(=O)N2CCC3(CC2)CN([C@H](c2ccc(-c4ncccn4)cc2)C(C)C)C3)nc1	912 nM	–	–	–	–	pKi [1]: < 4.68
COc1ccc(CC(=O)N2CCC3(CC2)CN([C@@H]2CCc4cc(-c5ncc(C)cn5)ccc42)C3)nc1	–	–	40%	7.07	5%	pKi [2]: < 4.17
COc1ccc(CC(=O)N2CCC3(CC2)CN(C(c2ccc(-c4ncccn4)cc2)C(C)C)C3)nc1 (configuration not stated)	151 nM	–	–	–	–	pKi [1]: < 4.52
COc1ccc(CC(=O)N2CCC3(CC2)CN([C@@H]2CCc4cc(-n5nccn5)ccc42)C3)nc1	–	–	42%	7.57	50%	pKi [2]: < 4.42
COc1ccc(CC(=O)N2CCC3(CC2)CN([C@@H]2CCc4cc(-c5ncccn5)ccc42)C3)cc1	–	–	–	–	85%	–
COc1ccc(CC(=O)N2CCC3(CC2)CN([C@@H]2CCc4cc(-n5nccn5)ccc42)C3)cc1	–	7.41 nM	21%	8.27	74%	pKi [2]: < 4.26
Cc1ccc(CC(=O)N2CCC3(CC2)CN([C@@H]2CCc4cc(-n5nccn5)ccc42)C3)nc1	21900 nM	–	40%	7.23	23%	–
COc1ccc(CC(=O)N2CCC3(CC2)CN([C@@H]2CCc4cc(-c5nccs5)ccc42)C3)nc1	–	3.98 nM	39%	7.4	35%	pKi [2]: < 4.25
COc1ccc(CC(=O)N2CCC3(CC2)CN(C2CCc4cc(-c5nccs5)ccc42)C3)nc1 (configuration not stated)	871 nM	–	–	–	–	IC50 [1]: 30.2 nM
COc1ccc(CC(=O)N2CCC3(CC2)CN([C@@H](c2ccc(-c4ncccn4)cc2)C(C)C)C3)nc1	47.9 nM	–	–	–	–	pKi [1]: < 4.53
CCc1ccc(CC(=O)N2CCC3(CC2)CN([C@@H]2CCc4cc(-c5ncccn5)ccc42)C3)nc1	28200 nM	15.5 nM	22%	7.13	10%	–
Cc1cn2cc(CC(=O)N3CCC4(CC3)CN(Cc3ccc(-n5nccn5)cc3Cl)C4)nc2s1	–	–	–	–	–	Ki [5]: 269 nM
CCc1ccc(CC(=O)N2CCC3(CC2)CN([C@@H]2CCc4cc(-n5nccn5)ccc42)C3)nc1	–	–	23%	7.38	74%	pKi [2]: < 4.59

Now from value to compound, other results behind:

Ki [2]	Ki [1]	Activity [3]	pKb [3]	SMILES	Occ (Rattus norvegicus)	other results
1950 nM	–	–	–	COc1ccc(CC(=O)N2CCC3(CC2)CN(Cc2ccc(-c4ncccn4)cc2Cl)C3)cc1	–	IC50 [1]: 15.8 nM
407 nM	–	–	–	COc1ccc(CC(=O)N2CCC3(CC2)CN([C@H]2CCc4cc(-c5ncccn5)ccc42)C3)nc1	–	IC50 [1]: 1100 nM
–	–	21%	6.98	Cc1ccc(CC(=O)N2CCC3(CC2)CN([C@@H]2CCc4cc(-c5ncccn5)ccc42)C3)nc1	0.2%	efflux ratio (human MDR1 (P-gp)): 2; microsomal CLint [4]: 22 µL/min/mg; pKi [2]: < 4.56
14500 nM	29.5 nM	42%	7.6	COc1ccc(CC(=O)N2CCC3(CC2)CN([C@@H]2CCc4cc(-c5ncccn5)ccc42)C3)nc1	45%	–
2400 nM	1700 nM	–	–	COc1ccc(CC(=O)N2CCC3(CC2)CN(C(C)c2ccc(-c4ncccn4)cc2)C3)nc1 (configuration not stated)	–	–
7080 nM	3630 nM	–	–	COCC(c1ccc(-c2ncccn2)cc1)N1CC2(CCN(C(=O)Cc3ccc(OC)cn3)CC2)C1 (configuration not stated)	–	–
2240 nM	1120 nM	–	–	COc1ccc(CC(=O)N2CCC3(CC2)CN([C@@H](C)c2ccc(-c4ncccn4)cc2)C3)nc1	–	–
20000 nM	25100 nM	–	–	COc1ccc(CC(=O)N2CCC3(CC2)CN([C@H](C)c2ccc(-c4ncccn4)cc2)C3)nc1	–	–
1620 nM	–	–	–	COc1ccc(CC(=O)N2CCC3(CC2)CN(C2CCc4cc(-c5ncccn5)ccc42)C3)nc1 (racemic)	–	IC50 [1]: 37.2 nM
